These results are taken from publication PMC6317155, “Identification of Small Peptides that Inhibit NADPH Oxidase (Nox2) Activation” (Antioxidants, 2018).

In assay [1] the target is T1, aiPLA2 activity of recombinant human Prdx6 (Homo sapiens, UniProt P30041).
T1 sequence (P30041 1-224): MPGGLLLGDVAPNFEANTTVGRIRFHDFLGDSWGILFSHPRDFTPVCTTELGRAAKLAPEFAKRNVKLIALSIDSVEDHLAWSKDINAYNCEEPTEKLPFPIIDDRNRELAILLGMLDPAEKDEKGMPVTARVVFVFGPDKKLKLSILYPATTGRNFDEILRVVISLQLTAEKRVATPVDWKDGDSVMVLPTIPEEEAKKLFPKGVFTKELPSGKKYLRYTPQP
Briefly: aiPLA2 (PLA2) activity of recombinant human Prdx6 in vitro, 3H-DPPC liposome substrate. The assay is classed as biochemical. To be noted: for Activity (aiPLA2 of recombinant hPrdx6), deletion from C-term: peptides deleted from C-terminus of 16-aa rat-derived SP-A peptide, and scrambled peptide; for Activity (aiPLA2 of recombinant hPrdx6), deletion from C-term / Activity (aiPLA2 of recombinant hPrdx6), deletion from N-term: no-peptide control 94.8; for Activity (aiPLA2 of recombinant hPrdx6), deletion from C-term / Activity (aiPLA2 of recombinant hPrdx6), human-derived peptides / Activity (aiPLA2 of recombinant hPrdx6), deletion from N-term: one assay done in duplicate; for Concentration of peptide for inhibition of aiPLA2 activity by 50%: concentration corrected for purity of the PIP preparation, Figure 2, n = 3; for Activity (aiPLA2 of recombinant hPrdx6), human-derived peptides: deletions from 16-aa human-derived SP-A peptide, no-peptide control 92.0; for Activity (aiPLA2 of recombinant hPrdx6), deletion from N-term: peptides deleted from N-terminus of 16-aa rat-derived SP-A peptide, 3H-DPPC liposomes, 60 min. Here is the method: The PLA2 activity of Prdx6 was measured as described previously. The substrate was dipalmitoylphosphatidylcholine (DPPC) with ^3H-9,10-palmitate in the sn-2 position of DPPC incorporated into lung surfactant-like liposomes as described above; substrate was incubated with enzyme for 60 min and activity was calculated from the liberation of ^3H-palmitate as measured by scintillation counting.
The effect of the PIP peptides on the aiPLA2 activity of human recombinant Prdx6 was determined by in vitro assay; the effective concentration of inhibitor was corrected for purity of the PIP preparation. Saturating concentrations of all three peptides (PIP-1, PIP-2, PIP-3) inhibited aiPLA2 activity by ~70% (Figure 2). The basis for the remaining 30% of activity that was not inhibited is unclear.

The target in assay [2] is T2, recombinant human peroxiredoxin 6 (Prdx6) (human) (UniProt P30041).
T2 sequence: T1 sequence (P30041 1-224)

The target of assay [3] is T2, recombinant human peroxiredoxin 6 (Prdx6) (human). The source holds these as a separate data set.
Assay [4] concerns the target T3, mouse peroxiredoxin 6 (Prdx6), endogenous in lung homogenate (mouse (endogenous in lung)) (UniProt O08709).
T3 sequence: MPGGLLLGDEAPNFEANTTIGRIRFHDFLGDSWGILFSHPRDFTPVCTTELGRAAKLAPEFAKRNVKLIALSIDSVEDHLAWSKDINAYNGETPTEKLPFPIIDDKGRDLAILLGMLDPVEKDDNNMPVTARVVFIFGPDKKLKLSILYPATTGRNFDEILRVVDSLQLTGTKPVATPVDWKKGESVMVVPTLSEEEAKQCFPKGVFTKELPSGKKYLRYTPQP

For assay [5], the target named is T2, recombinant human peroxiredoxin 6 (Prdx6) (human). This is another data set of the same source.
The target is the same in assay [6]. The source holds these as a separate data set.

Consider “LELDEEITEYQKQLHI [Scrambled peptide, scrambled 16-aa control peptide, reference compound]”, for which, in assay [1], the “Activity (aiPLA2 of recombinant hPrdx6), deletion from C-term” value (shortened to “Activity … from C-term”) is 93.5 nmol/min/mg Prot.
Regarding LYDIRHQIL [PIP-3], the “Inhibition of aiPLA2 activity of human recombinant Prdx6” value in assay [1] is listed as ~ 70%. Besides, the “Concentration of peptide for inhibition of aiPLA2 activity by 50%” value in assay [1] (recombinant human Prdx6) is ~ 10 µg/mg Prdx6.
Regarding “TLHDFRHQIL [10-aa N-terminal deletion of human 16-aa peptide]”, in assay [1], the “Activity (aiPLA2 of recombinant hPrdx6), human-derived peptides” value (from here on “Activity … human-derived peptides”) came out at 31.5 nmol/min/mg Prot.
As for “YEIKHQIL [8-aa N-terminal deletion of rat 16-aa peptide]”, in assay [1], the “Activity (aiPLA2 of recombinant hPrdx6), deletion from N-term” value (from here on “Activity … from N-term”) was found to be 94.4 nmol/min/mg Prot.
The same measure, in the same setting: with “QTELYEIKHQIL [12-aa N-terminal deletion of rat 16-aa peptide]” the figure was 31.5 nmol/min/mg Prot.
With “ELYEIKHQI [9-aa peptide lacking the C-terminal Leu]”, the “Activity … from C-term” value in assay [1] was 89.6 nmol/min/mg Prot.
With DEELQTELYEIKHQIL, in assay [1], the “Activity … from C-term” value came to 32.0 nmol/min/mg Prot and the “Activity … from N-term” value worked out at 32.0 nmol/min/mg Prot.
Take “ELYEIKHQIL [10-aa N-terminal deletion of rat 16-aa peptide]”: the “Activity … from N-term” value in assay [1] was 28.6 nmol/min/mg Prot.
For LYEIKHQIL [PIP-1], in assay [1], the “Activity … from N-term” value is on record as 32.3 nmol/min/mg Prot. Moreover, the “Inhibition of aiPLA2 activity at saturating concentrations of peptide” value in assay [1] (recombinant human Prdx6, Figure 2, mean + SEM, n = 3) is recorded as ~ 70%. Besides, the “Concentration of peptide for inhibition of aiPLA2 activity by 50%” value in assay [1] (recombinant human Prdx6) is reported as ~ 8.3 µg/mg Prdx6.
Turning to “ELQTELYEIKHQIL [14-aa N-terminal deletion of rat 16-aa peptide]”, in assay [1], the “Activity … from N-term” value amounted to 33.2 nmol/min/mg Prot.
Consider “DEELQTEL [8-aa C-terminal deletion of rat 16-aa peptide]”, for which the “Activity … from C-term” value in assay [1] was 93.6 nmol/min/mg Prot.
As to “DEELQATLHDFRHQIL [16 aa human SP-A-derived peptide]”, the “Activity … human-derived peptides” value in assay [1] is 45.0 nmol/min/mg Prot.
As to “TLHDFRHQI [9-aa human peptide with C-terminal aa deleted]”, the “Activity … human-derived peptides” value in assay [1] is 89.6 nmol/min/mg Prot.
As for “DEELQTELYEIKHQ [14-aa C-terminal deletion of rat 16-aa peptide]”, the “Activity … from C-term” value in assay [1] came out at 102 nmol/min/mg Prot.
As to LYEIKHQIL [PLA2-inhibitory peptide 1 (PIP-1), rat/mouse SP-A nine-aa peptide], the aiPLA2 activity of recombinant hPrdx6 with the peptide (no peptide: 94.8; scrambled peptide: 93.5) (nmol/min/mg Prot.) in assay [2] is 32.3. In assay [3], the concentration of peptide for inhibition of aiPLA2 activity by 50% was determined as 8.3 µg/mg Prdx6; the inhibition of the aiPLA2 activity of human recombinant Prdx6 in vitro against peptide concentration, up to saturating concentrations worked out at 70%; the molar stoichiometry of peptide to Prdx6 monomer worked out from the PIP to Prdx6 ratio at maximal inhibition of aiPLA2 activity (peptide to Prdx6 monomer, molar) is 1.5.
In assay [4], LHDFRHQIL [PLA2-inhibitory peptide 2 (PIP-2), human SP-A nine-aa peptide] yielded an inhibition of PLA2 activity at pH 4 without Ca2+ (aiPLA2) of wild type mouse lung homogenate after addition of PIP-2 to the assay of 91%. Further, the aiPLA2 activity of recombinant hPrdx6 with the peptide (no peptide: 92.0) (nmol/min/mg Prot.) in assay [5] stood at 29.9. Besides, in assay [3], the concentration of peptide for inhibition of aiPLA2 activity by 50% was 6.6 µg/mg Prdx6; the inhibition of the aiPLA2 activity of human recombinant Prdx6 in vitro against peptide concentration, up to saturating concentrations is 70%; the molar stoichiometry of peptide to Prdx6 monomer worked out from the PIP to Prdx6 ratio at maximal inhibition of aiPLA2 activity (peptide to Prdx6 monomer, molar) worked out at 1.5.
LYDIRHQIL [PLA2-inhibitory peptide 3 (PIP-3), hybrid of PIP-1 and PIP-2]: the inhibition of aiPLA2 activity by the hybrid nine-aa peptide in assay [6] stood at 70%. Also, in assay [3], the concentration of peptide for inhibition of aiPLA2 activity by 50% amounted to 10 µg/mg Prdx6; the inhibition of the aiPLA2 activity of human recombinant Prdx6 in vitro against peptide concentration, up to saturating concentrations amounted to 70%; the molar stoichiometry of peptide to Prdx6 monomer worked out from the PIP to Prdx6 ratio at maximal inhibition of aiPLA2 activity (peptide to Prdx6 monomer, molar) was 1.5.
